Measurements published in publication PMC12304285 (British Journal of Cancer, 2025).
Values joined by “and” are separate entries in the source; they are usually repeats but may differ in a detail not shown here. Equal values may be shown once. Read-outs that look alike come from different tables or passages of the source.

How the values were obtained:
[1] = test system: patients with advanced cancer
Description: A single dose was administered during Cycle 0 and was followed by a drug washout period lasting 3–7 days. […] If either of these conditions was not met, the cohort would be expanded to a minimum of 3, and up to 6, patients in all subsequent cohorts. A Bayesian adaptive design, using all of the available data and considering the pharmacokinetics (PK) from a minimum of 2 or 3 patients enrolled into each dose cohort, was used from this point. Dose escalation was scheduled to be stopped at the maximum tolerated dose (MTD) (defined as 25% of patients in a cohort experiencing a dose-limiting toxicity [DLT] with the required precision [ratio of upper and lower 95% credible limits <5.0]), the maximum feasible dose (MFD) or the recommended Phase II dose (RP2D). Intra-patient dose escalation was permitted as long as predefined criteria were met, including that the planned next higher dose had to be declared tolerated by the SRC based on assessment of 2–6 evaluable patients.
The starting dose of PLD was 40 mg/m^2 intravenously once every 28 days for a maximum of 6 cycles. PLD dose could be escalated to 50 mg/m^2 or de-escalated to 30 mg/m^2 every 28 days with agreement from the SRC. […] Dose escalation was scheduled to be stopped at the MTD (defined as 30% of patients in a cohort experiencing a DLT with the required precision [ratio of upper and lower 95% credible limits <5.0]). Approximately 30 evaluable patients across five cohorts (n = 3–6 per cohort) were originally planned to provide an estimate of MTD.
Definitions of dose-limiting toxicity
DLTs were evaluated during Cycle 0 and Cycle 1 of treatment. Toxicity was graded according to the National Cancer Institute CTCAE v5.0.
A DLT was defined as an AE that occurs from the first dose of study treatment up to and including Cycle 1, Day 28 (the DLT assessment period) that is assessed as unrelated to the disease, intercurrent illness, or concomitant medications and that, despite optimal therapeutic interventions, meets any of the following criteria:
Haematological Toxicities:
• Grade 4 neutropenia lasting >4 days.
• Grade 4 thrombocytopenia.
• Grade 3 neutropenia (ANC ≥500 to <1000 cells/mm3) of any duration accompanied by fever ≥38.5 °C and/or systemic infection.
• Grade 3 thrombocytopenia (25,000 to <50,000/mm3) with bleeding
Non-haematological toxicities:
• Confirmed laboratory abnormalities
• Nausea or vomiting for more than three consecutive days despite administration of maximal anti-emetic therapy
• Diarrhoea for more than three consecutive days despite administration of maximal anti- […]
• QTc prolongation >500 milliseconds or QTcF prolongation from baseline by 60 milliseconds confirmed on at least two separate ECGs
• Any other toxicity that is greater than at baseline AND is clinically significant and/or […]
AND is judged to be a DLT by the SRC
• Any treatment-related event, including significant dose reductions, omissions or delays, judged to be a DLT by the SRC. Examples may include CTCAE Grade 2 toxicities that are clinically significant and/or unacceptable according to the investigator, toxicities that […]
the administration of study treatment in the subsequent cycle by ≥7 consecutive days DLT will not include the following:
• Transient isolated laboratory abnormalities which are not considered clinically significant and resolve to baseline within 72 hours without any intervention […]
• Toxicity unrelated to treatment e.g., related to the underlying disease or disease-related

[2] = Plasma and urine pharmacokinetics in patients; type: in vivo, human
Description: Urine PK samples were collected at Cycle 0, Day 1 and at Cycle 1, Day 8 at the following timepoints: pre-dose (Cycle 0, Day 1 only), 0 to 8 h post dose and 8 to 24 h post-dose. […] Maximum observed concentration (Cmax) and time to reach Cmax (tmax) were determined directly by inspection of the concentration-time profiles. Terminal half-life slope (t½λz) was calculated as ln2/terminal elimination rate constant (λz). Area under the plasma concentration time curve from zero to last measurable concentration (AUClast) was calculated using the linear up/log down trapezoidal rule. AUClast was extrapolated to infinity using λz to obtain overall exposure (AUCinf). The amount of drug excreted unchanged in the urine (e.g. Ae0-t, Aeτ) for any given dosing interval was determined by multiplying the concentration of drug determined in the urine sample by the volume of the sample collected in that period.

Cc1cc2ncnn2cc1Nc1ncc2c(n1)n(C1CCOCC1)c(=O)n2C [AZD7648, 7-Methyl-2-[(7-methyl[1,2,4]triazolo[1,5-a]pyridin-6-yl)amino]-9-(tetrahydro-2H-pyran-4-yl)-7,9-dihydro-8H-purin-8-one]
Any AE leading to death ([1]; 5 mg BID (n = 1)): 0 n (%)
Any AZD7648-related AE leading to death ([1]; 5 mg BID (n = 1)): 0 n (%)
Any AE leading to death ([1]; 5 mg QD (n = 1)): 0 n (%)
Any AZD7648-related AE leading to death ([1]; 5 mg QD (n = 1)): 0 n (%)
Any AE leading to death ([1]; 10 mg BID (n = 1)): 0 n (%)
Any AZD7648-related AE leading to death ([1]; 10 mg BID (n = 1)): 0 n (%)
Any AE leading to death ([1]; 20 mg BID (n = 1)): 0 n (%)
Any AZD7648-related AE leading to death ([1]; 20 mg BID (n = 1)): 0 n (%)
Any AE leading to death ([1]; 40 mg BID (n=3)): 0 n (%)
Any AZD7648-related AE leading to death ([1]; 40 mg BID (n=3)): 0 n (%)
Any AE leading to death ([1]; 80 mg BID (n = 4)): 1 (25.0) n (%)
Any AZD7648-related AE leading to death ([1]; 80 mg BID (n = 4)): 0 n (%)
Any AE leading to death ([1]; 160 mg BID (n=3)): 0 n (%)
Any AZD7648-related AE leading to death ([1]; 160 mg BID (n=3)): 0 n (%)
TEAE Anaemia ([1]; Any grade): 4 (28.6) n (%)
TEAE Diarrhoea ([1]; Any grade): 4 (28.6) n (%)
TEAE Nausea ([1]; Any grade): 4 (28.6) n (%)
TEAE Neutropenia ([1]; Any grade): 2 (14.3) n (%)
TEAE Urinary tract infection ([1]; Any grade): 2 (14.3) n (%)
TEAE Vomiting ([1]; Any grade): 4 (28.6) n (%)
Any treatment-related grade 3/4 AE, related to AZD7648 ([1]; all dose levels): 4 (28.6) n (%)
Death ([1]; all dose levels): 4 (28.6) n (%)
patients with nausea ([1]; all dose levels): 28.6% and ~ 30%
patients with neutropenia ([1]; all dose levels): 14.3%
patients with vomiting ([1]; all dose levels): 28.6% and ~ 30%
Any AE ([1]; human, in vivo): 12 (85.7) n (%)
Any DLT ([1]; human, in vivo): 1 (7.1) n (%)
Any SAE ([1]; human, in vivo): 5 (35.7) n (%)
TEAE Anaemia ([1]; human, in vivo): 1 (7.1) n (%)
TEAE Diarrhoea ([1]; human, in vivo): 1 (7.1) n (%)
TEAE Nausea ([1]; human, in vivo): 0 n (%)
TEAE Neutropenia ([1]; human, in vivo): 1 (7.1) n (%)
TEAE Urinary tract infection ([1]; human, in vivo): 0 n (%)
TEAE Vomiting ([1]; human, in vivo): 0 n (%)
patients with gastrointestinal disorders ([1]; human, in vivo): 64.3%
patients who experienced TEAEs ([1]; human, in vivo, 2.9 months): 85.7%
patients with abdominal pain ([1]; human, in vivo, 2.9 months): ~ 20%
patients with decreased appetite ([1]; human, in vivo, 2.9 months): ~ 20%
patients with fatigue ([1]; human, in vivo, 2.9 months): ~ 20%
maximum tolerated dose (MTD) ([1]; monotherapy, escalation paused at 160 mg BID continuous dosing): an MTD could not be declared
DLT reported (nature) ([1]; one patient, AZD7648 160 mg BID): grade 4 increased alanine aminotransferase (ALT) and aspartate aminotransferase (AST)
exposure versus dose ([2]; 5 to 160 mg BID): increased in a broadly linear manner
fraction excreted unchanged in urine ([2]; human, in vivo): 5–10 % of the total administered dose
AUC(0-inf) ([2]; human, plasma, oral, 80 mg BID cohort, Cycle 0 Day 1 single dose, read-out: geoMean AUCinf): 25.2 µM·h
Cmax ([2]; human, plasma, oral, 80 mg BID cohort, Cycle 0 Day 1 single dose, read-out: geoMean Cmax): 2460 nM
Tmax ([2]; human, plasma, 5 to 160 mg, oral): 1 to 2 h
drug exposure achieved ([2]; one patient at the 80 mg dose level): > 1 µM
